Measured values from ChEMBL document CHEMBL1201862, “PubChem BioAssay data set” (2004).
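Results reflect a 48-hour exposure of cells in 96-well plates to compound at five concentrations. GI50 marks 50% less growth.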 Activity calls are given as the source filed them. No stated cut-off is given here; in the data, active = GI50 up to about 1.1 µM and inactive = higher.

Columns and labels:
Experiment in all cases: NCI anticancer screen, dose series, 48 h
[1] = tested on: SK-OV-3
[2] = tested on: TK-10
[3] = tested on: NCI-H226
[4] = tested on: SNB-19
[5] = tested on: DU-145
[6] = tested on: HCT-15
[7] = tested on: NCI-H522
[8] = tested on: SNB-75
[9] = tested on: LOX IMVI
[10] = tested on: SK-MEL-2
[11] = tested on: Hs-578T
[12] = tested on: CCRF-CEM
[13] = tested on: SR
[14] = tested on: OVCAR-5
[15] = tested on: M14
[16] = tested on: HCC 2998
[17] = tested on: SW-620
[18] = tested on: MCF7
[19] = tested on: Malme-3M
[20] = tested on: 786-0

Row | SMILES | GI50 [1] | GI50 [2] | GI50 [3] | GI50 [4] | GI50 [5] | GI50 [6] [µM] | GI50 [7] | GI50 [8] | GI50 [9] | GI50 [10] | GI50 [11] | GI50 [12] | GI50 [13] | GI50 [14] | GI50 [15] | GI50 [16] | GI50 [17] | GI50 [18] | GI50 [19] | GI50 [20]
1 | CC(C)C[C@H](NC(=O)[C@@H](Cc1cccc2ccccc12)NC(=O)N1CCOCC1)B(O)O | 6.85 µM (inactive) | 6.47 µM (inactive) | 1.61 µM (inactive) | 9.77 µM (inactive) | 10.9 µM (inactive) | 21.9 | 1.92 µM (inactive) | 1.18 µM (inactive) | 2.36 µM (inactive) | 3.33 µM (inactive) | 3.84 µM (inactive) | 1.57 µM (inactive) | 3.13 µM (inactive) | 3.19 µM (inactive) | 3.11 µM (inactive) | 2.01 µM (inactive) | 3.14 µM (inactive) | 5.43 µM (inactive) | 1.58 µM (inactive) | 4.79 µM (inactive)
2 | O=C(O)C(Oc1nc(S)nc(S)n1)(c1ccc(Cl)cc1)c1ccc(Cl)cc1 | > 100 µM (inactive) | > 100 µM (inactive) | > 100 µM (inactive) | > 100 µM (inactive) | > 100 µM (inactive) | > 100 | > 100 µM (inactive) | > 100 µM (inactive) | > 100 µM (inactive) | > 100 µM (inactive) | > 100 µM (inactive) | – | > 100 µM (inactive) | > 100 µM (inactive) | > 100 µM (inactive) | 92.7 µM (inactive) | > 100 µM (inactive) | > 100 µM (inactive) | > 100 µM (inactive) | > 100 µM (inactive)
3 | O=C(O)c1cc2ccccc2c(/N=N/c2ccc(S(=O)(=O)Nc3ccccn3)cc2)c1O | > 100 µM (inactive) | > 100 µM (inactive) | > 100 µM (inactive) | < 0.01 µM (active) | > 100 µM (inactive) | > 100 | > 100 µM (inactive) | > 100 µM (inactive) | – | > 100 µM (inactive) | > 100 µM (inactive) | > 100 µM (inactive) | > 100 µM (inactive) | > 100 µM (inactive) | > 100 µM (inactive) | > 100 µM (inactive) | > 100 µM (inactive) | > 100 µM (inactive) | > 100 µM (inactive) | > 100 µM (inactive)
4 | CC(C)(C)OC(=O)NC(Cc1ccccc1)NC(=O)NC(=O)OCc1ccccc1 (centres undefined) | 54.6 µM (inactive) | 53.2 µM (inactive) | 28.3 µM (inactive) | 36.5 µM (inactive) | 87.1 µM (inactive) | > 100 | 15.6 µM (inactive) | 32.8 µM (inactive) | – | 34.3 µM (inactive) | 44 µM (inactive) | – | > 100 µM (inactive) | > 100 µM (inactive) | 57.7 µM (inactive) | 40 µM (inactive) | 59.6 µM (inactive) | > 100 µM (inactive) | 41.8 µM (inactive) | 34.4 µM (inactive)
5 | Brc1cc2nn(-c3ccccc3)nc2c2nonc12 | > 100 µM (inactive) | > 100 µM (inactive) | > 100 µM (inactive) | > 100 µM (inactive) | > 100 µM (inactive) | > 100 | > 100 µM (inactive) | > 100 µM (inactive) | > 100 µM (inactive) | > 100 µM (inactive) | > 100 µM (inactive) | > 100 µM (inactive) | > 100 µM (inactive) | > 100 µM (inactive) | > 100 µM (inactive) | > 100 µM (inactive) | > 100 µM (inactive) | > 100 µM (inactive) | > 100 µM (inactive) | > 100 µM (inactive)
6 | O=C(O)C1CC(c2ccc(F)cc2)=Nc2ccc(F)cc2S1 (centres undefined) | > 100 µM (inactive) | > 100 µM (inactive) | > 100 µM (inactive) | > 100 µM (inactive) | > 100 µM (inactive) | > 100 | > 100 µM (inactive) | > 100 µM (inactive) | – | > 100 µM (inactive) | > 100 µM (inactive) | > 100 µM (inactive) | > 10 µM (inactive) | > 100 µM (inactive) | 68.2 µM (inactive) | > 100 µM (inactive) | > 100 µM (inactive) | > 100 µM (inactive) | > 100 µM (inactive) | > 100 µM (inactive)
7 | O=S1(=O)NC2CCC3NS(=O)(=O)NC4CCC(N1)N4S(=O)(=O)N23 (centres undefined) | > 100 µM (inactive) | > 100 µM (inactive) | > 100 µM (inactive) | > 100 µM (inactive) | > 100 µM (inactive) | > 100 | > 100 µM (inactive) | > 100 µM (inactive) | > 100 µM (inactive) | > 100 µM (inactive) | > 100 µM (inactive) | – | > 100 µM (inactive) | > 100 µM (inactive) | > 100 µM (inactive) | > 100 µM (inactive) | > 100 µM (inactive) | > 100 µM (inactive) | > 100 µM (inactive) | > 100 µM (inactive)
